The procedure of series [1]: The temperature was 25° C. using step intervals of 10% between 0% and 95% RH in two consecutive cycles.
For series [2], the system named is adverse involuntary movements (AIMs). The following applies: J. Pharmacol. Exp. Ther. 374: 113-125, July 2020; cited from earlier work.
For series [3], the system named is immediate early response genes (IEGs) cfos and arc. Kind of series: Striatal gene expression analysis by qPCR in 6-OHDA-lesioned rats. It is filed as in vivo. As for the experimental part: Data is expressed as relative gene expression and was statistically evaluated by two-way ANOVA (analysis of variance).
Data is expressed as relative gene expression and was statistically evaluated by two-way ANOVA (analysis of variance). * denotes p<0.05, ** denotes p<0.01, and *** denotes p<0.001.
Whenever L-DOPA was used in this study, it was administered together with benzerazid HCl-salt 7.5 mg/kg i.p, which is a standard procedure when L-DOPA is administered to rats in the unilateral 6-OHDA lesion model. Chronic treatment of four groups of rats was started with either: (1) L-DOPA (10 mg/kg), (2) [2-(3-fluoro-5-methanesulfonyl-phenoxy)ethyl](propyl)amine tartaric acid salt (3 mg/kg s.c.), (3) L-DOPA (10 mg/kg)+[2-(3-fluoro-5-methanesulfonyl-phenoxy)ethyl](propyl)amine tartaric acid salt (3 mg/kg s.c.), or (4) the corresponding vehicle (saline, i.p.) given once daily for 2 weeks. Additionally, two groups of rats were treated with either amantadine HCl salt (40 mg/kg ip), or L-DOPA (10 mg/kg)+amantadine HCl salt (40 mg/kg i.p.), once daily for 14 days. Behavioural assessments were performed on Day 1, Day 7, and Day 14 of chronic treatment. Thus, on Days 1, 7 and 14 contralateral rotations (i.e. rotations in the opposite direction to the side of the 6-OH-DA-lesion) were measured. Contralateral rotations were measured by Rotorat over 2.5 hours after the administration of test compound. […]
Background: In qPCR the cycle at which signal appears reflects the starting amount.

A short description of series [4]: Hygroscopicity test, weighed samples kept at varied humidity at 30° C. for one week. It is filed as physicochemical. The following applies: for Weight difference (%): 30° C., one week; for Hygroscopicity, in words: any tested relative humidity. The protocol: Hygroscopicity test of the L-tartaric salt of [2-(3-fluoro-5-methanesulfonylphenoxy)-ethyl] (propyl)amine was performed by keeping exact weight samples of the salt at varied humidity at 30° C. After one week, the samples were weighed again and based on the original weight the percentage weight difference was calculated.

Series [5] has as its system Parkinson's patients with L-DOPA induced dyskinesia (LIDs). Kind of series: Human clinical study, 24-hour patient home diaries (good ON time). It is filed as in vivo. The text has this: Home diaries have gained wide acceptance as endpoints for clinical development of therapeutics aiming to reduce treatment-related motor complications. Motor fluctuations are associated with compromise in activities of daily living and health-related quality of life. In clinical trials performed by Integrative Research Laboratories Sweden AB patients record their 24-hours motor function in 30-minute intervals, beginning at midnight. For each 30-minute interval the patient rates the state he or she has been in for the past 30 minutes; OFF, ON without troublesome dyskinesia or ON with troublesome dyskinesia. The patient also denoted the time when he or she has been asleep.
In general, an “OFF” time reduction or “good ON-time” increase of 1 hour may be considered clinically significant and has been used as an assumption in power calculations in clinical trials. Therefore, it can be assumed that shift towards more “good ON-time” of a minimum of 1-hour daily represents a clinically meaningful effect, considering the total time spent in the daily ON state (ON with and without troublesome dyskinesia) is not negatively affected by the treatment.
A valid diary is defined as not having more than 2 hours of invalid data entries (4 invalid entries) over a given 24-hour period. An invalid diary entry is defined as more than one entry recorded in each half-hour interval, an unreadable entry, or the absence of an entry in each half-hour interval. The average diary information from 3 valid diaries (if available) for each visit will be used to calculate diary-based efficacy endpoints. If there are only 2 valid diaries for a visit, then the average information from the 2 valid diaries will be used. If only one diary is valid, information from the single valid diary will be used. If no valid diaries were available for a patient visit, then the diary information was considered missing.
At run-in and following treatment patients were asked to complete home diaries describing their motor status in 30-minute intervals for 24 hours. […]

Series [6] deals with unilateral 6-OHDA-lesioned rats. Kind of series: Rodent unilateral 6-OHDA lesion model of L-DOPA sensitization, rotation test by ROTORAT. It is filed as in vivo, Sprague Dawley rats. The following applies: for Contralateral turns, test compound given alone: without L-DOPA, 0-2.5 h. The protocol:
The unilateral 6-OHDA lesion model is an established animal model of Parkinson's disease (see e.g. Exp. Neurol. 194: 66-75 (2005)). The neurotoxin 6-OH-DA is injected in the medial forebrain bundle (MFB), resulting in depletion of dopamine e.g. in the striatum. Upon repeated administration of L-DOPA, the animals with such a lesion display sensitization to L-DOPA, captured by rotational behaviour measured as associated with the development of LIDs. The effects of IRL790 (as a HCl-salt) on fully established AIMs have been published previously (J. Pharmacol. Exp. Ther. 374: 113-125 (2020)). Thus, in this article the administration of IRL790 was […]. […] The co-administration of said test compound with the L-DOPA was not preceded by treatment with L-DOPA. The clinically used antidyskinetic compound amantadine (as a HCl-salt) together with L-DOPA was used for comparison.
For the evaluation of sensitization to L-DOPA the rodent unilateral 6-OH-DA-lesion model was used. Adult 150˜200 g female Sprague Dawley rats (Charles River) were housed in temperature- and humidity-controlled rooms (20° C., 53% humidity) with a 12 h dark/light cycle. The rats had access to standard food pellets and water ad libitum. The experiments were approved by the local ethical committee at Karolinska Institute (Stockholm North Ethical Committee, N1525/2017) and conducted in accordance with the European Communities Council Directive of 24 Nov. 1986 (86/609/EEC).
Experimental procedures including unilateral 6-OH-DA-lesions and behavioral assessments were carried as follows. Rats were anesthetized using a mixture of ketamine (100 mg/kg, i.p.; Parke-Davis, Boxmeer, The Netherlands) and xylazine (10 mg/kg, i.p.; Bayer, Kiel, Germany), pretreated with a mixture of desipramine (25 mg/kg, i.p.; Sigma-Aldrich) and pargyline (5 mg/kg, i.p.; Sigma-Aldrich) 30 minutes before lesioning to prevent uptake of 6-OHDA into noradrenergic neurons, and to prevent extracellular metabolism of 6-OHDA, respectively. Rats were placed in a stereotaxic frame (David Kopf Instruments, KOPF®, USA) and injected with temgesic (0.1 mg/kg, s.c., Apoteket, Sweden) before surgery; 2 μl 6-OHDA (5 μg/μl in saline containing 0.02% w/v ascorbic acid, Sigma-Aldrich) was injected into the right MFB, stereotaxic coordinates AP: −2.5 mm, ML: −2.0 mm, DV: −8.5 mm vs. bregma and dural surface (The Rat Brain in Stereotaxic Coordinates 6th Edition, George Paxinos and Charles Watson, 2007) in order to selectively lesion dopaminergic cells in the right brain hemisphere. Post-operative analgesia (Temgesic, s.c.) was administered twice within 48 hours after surgery. Two weeks following surgery, rats were treated with apomorphine (1 mg/kg i.p.; Sigma-Aldrich) to verify successful lesioning. […]

For series [7] the following is noted: as disclosed in PCT/EP2020/064046; cited from earlier work.
Where [8] appears, read: once daily 2 weeks, Example 7 3 mg/kg s.c., amantadine HCl salt 40 mg/kg i.p., Day 1, 7, 14.

Counter-ions that a name gives are not always drawn. Like-named read-outs stand apart in the source and are kept apart here.

For the compound `CCCNCCOc1cc(F)cc(S(C)(=O)=O)c1.Cl` [Example 1 of WO 2012/143337, hydrochloric acid salt of [2-(3-fluoro-5-methanesulfonylphenoxy)-ethyl](propyl)amine], in series [1] (95% relative humidity and 25° C., DVS), the Weight gained result was “approximately 3%”. In series [1] (high relative humidities), the “Hygroscopicity, in words” value is recorded as “hygroscopic at high relative humidities”.

In the case of `CCCNCCOc1cc(F)cc(S(C)(=O)=O)c1` [Example 2, [2-(3-fluoro-5-methanesulfonylphenoxy)ethyl](propyl)amine], the “Adverse involuntary movements (AIMs)” value in series [2] is reported as “dose-dependently reduced”.

Regarding `CCCNCCOc1cc(F)cc(S(C)(=O)=O)c1` [Example 7, L-tartaric Acid Salt of [2-(3-fluoro-5-methanesulfonylphenoxy)ethyl](propyl)amine], the “Effect on L-DOPA-induced increase of striatal cfos and arc expression” value in series [3] (combination with L-DOPA, 14 days, Example 7 3 mg/kg) is “attenuated”. The “Weight difference (%)” value in series [4] (Relative Humidity 0 %) is listed as −0.26%; in series [4] (Relative Humidity 6 %), 0.00%; in series [4] (Relative Humidity 11 %) it was −0.06%; in series [4] (Relative Humidity 22 %) it was 0.12%; in series [4] (Relative Humidity 33 %), −0.18%; in series [4] (Relative Humidity 45 %) it was −0.13%. Moreover, the “Weight difference (%)” value was −0.15% in series [4] (Relative Humidity 56 %); −0.24% in series [4] (Relative Humidity 73 %); −0.07% in series [4] (Relative Humidity 75 %); 0.06% in series [4] (Relative Humidity 83 %); −0.08% in series [4] (Relative Humidity 97 %). The “Hygroscopicity, in words” value is reported as “very low hygroscopicity” in series [4] and “not hygroscopic at any relative humidities” in series [4] (listed as L-tartaric acid salt). The “Improvement in good ON time (mean values)” value is on record as 2.1 h in series [5] (5 mg or less (2.5 mg in some patients) twice-daily (b.i.d.), 9 patients); 5.6 h in series [5] (7.5 mg twice-daily (b.i.d.), 8 patients); 1.4 h in series [5] (10 mg or more (12.5 mg in some patients) twice-daily (b.i.d.), 20 patients). Besides, the “Contralateral rotational behavior Day 7 or Day 14 vs Day 1, co-treated with L-DOPA (sensitization)” value in series [6] (co-administered with L-DOPA 10 mg/kg once daily 2 weeks, Example 7 3 mg/kg s.c., amantadine HCl salt 40 mg/kg i.p.) was “no significant difference”. Moreover, in series [6] (setting [8]), the “Contralateral turns, test compound given alone” value is recorded as “no contralateral turns”.

Turning to `N[C@@H](Cc1ccc(O)c(O)c1)C(=O)O` [L-DOPA, L-3,4-dihydroxyphenylalanine, reference compound], the “Striatal expression of IEGs cfos and arc, L-DOPA treatment” value in series [3] (L-DOPA, 14 days of treatment, relative gene expression) is recorded as “significantly increased”. The “Contralateral rotational behavior over time, L-DOPA alone” value in series [6] (L-DOPA 10 mg/kg with benzerazid 7.5 mg/kg i.p., once daily 2 weeks, Day 1, 7, 14) is recorded as “increasing contralateral rotational behavior”.

With `NC12CC3CC(CC(C3)C1)C2` [amantadine HCl salt, amantadine, reference compound], the “Contralateral turns, test compound given alone” value in series [6] (setting [8]) is reported as “no contralateral turns”.

With `CCCNCCOc1cc(F)cc(S(C)(=O)=O)c1` [tartaric acid salt of [2-(3-fluoro-5-methanesulfonylphenoxy)-ethyl] (propyl)amine], the “Hygroscopicity, in words” value in series [7] was “non-hygroscopic”.

These data come from US20240148674A1, “PHARMACEUTICALLY ACCEPTABLE SALTS OF MESDOPETAM AND USES THEREOF” (priority 2020, published 2024).
